Converted amounts (≈) assume the structure as drawn. Read-outs that look alike come from different tables or passages of the source.
How the values were obtained:
gut microbiome = assay: Phase 1 healthy volunteer study, gut microbiome (metagenomics, qPCR); format: in vivo, human; details: for Proportion of isolated Firmicutes, Erysipelotrichaceae: baseline 2%; for Proportion of isolated Firmicutes, Other: baseline 4%; for Proportion of isolated Firmicutes, Lachnospiraceae: baseline 26%; for Proportion of isolated Firmicutes, Ruminococcaceae: baseline 68%
[1] = test system: C. difficile infection (CDI); assay: Phase 2a CDI clinical trial, clinical outcome and safety; format: in vivo, human
Method: Phase 2a of this trial was an open label cohort of 10 subjects from study centers in the United States. In this cohort, 10 patients with diarrhea caused by mild or moderate C. difficile diagnosed via toxin EIA+ were treated with ibezapolstat 450 mg orally, twice daily for 10 days. […] Stool was collected during course of therapy and at follow up. Patient fecal samples were evaluated for C. difficile culture and microbiome changes. […] Favorable microbiome changes included overgrowth of Actinobacteria and Firmicutes phylum species while on therapy. These findings support that microbiome effects may be predictive of beneficial patient outcomes including low rates of recurrence. […] Safety evaluations included AE assessment, physical examination, vital signs, clinical laboratory tests (chemistry, hematology, and urinalysis), and electrocardiogramaty endpoints for all subjects were recorded including nature, frequency, and severity of AEs. AEs were assessed at each visit beginning from the time of enrollment and classified according to the Medical Dictionary for Regulatory Activities (MedDRA version 15.0). AE severity (mild, moderate, or severe) and causality (unrelated, possibly related, or probably related to the study medication) were assessed by the investigator at each site. Stool samples were cultured for C. difficile growth on a selective cycloserine-cefoxitin fructose agar (CCFA) at 37° C. under anaerobic conditions for 48 hours. (Gonzales-Luna A J, Carlson T J. Dotson K M, et al. […] Emerg Microbes Infect 2020; 9(1): 341-7). Isolates were determined to be C. difficile based on growth and morphology and confirmed by PCR for C. difficile toxin and tpi genes. C. difficile was strain typed using a PCR-based ribotyping method as previously described (Gonzales-Luna A J, Carlson T J, Dotson K M, et al. […] Emerg Microbes Infect 2020; 9(1):341-7). Minimum inhibitory concentrations (MICs) were determined for ibezapolstat by broth microdilution in 0.1% sodium taurocholate Brain Heart Infusion (BHI) media (Begum K, Basseres E, Miranda J. et al. […] Antimicrob Agents Chemother 2020; 64(8)). An intent-to-treat analysis of patients receiving at least one dose of ibezapolstat was conducted. Descriptive statistics were calculated for efficacy, safety/tolerability, and PK data generated using SAS version 9.4 software (SAS Institute, Inc Cary, NC, USA). Microbiome summary plots and data visualization was prepared using R software version 4.1.1 (R Core Team 2021, Vienna, Austria). (R Core Team (2013). R: A language and environment for statistical computing. R Foundation for Statistical Computing, Vienna, Austria.

Clostridium tertium = assay: MIC determination, stool Firmicute isolates; format: cell-based
Blautia sp. = assay: MIC determination, stool Firmicute isolates; format: cell-based; details: N=1
Text: (§1) Fecal samples homogenized in reduced PBS (0.1 g stool/ml PBS) and serially diluted and plated directly onto YCFA7 agar supplemented with 0.002 g/ml each of glucose, maltose and cellobiose in large (13.5 cm diameter) petri dishes. Isolated colonies were identified by PCR amplification of the full-length 16S rRNA gene (using 7F (5′-[…]-3′) forward primer and 1510R (5′-[…]-3′) reverse primer followed by Sanger sequencing. Full-length 16S rRNA gene sequence reads were aligned using CLC Genomics (Qiagen) using the Ribosomal Database Project (RDP) as reference to classify reads to Operational Taxonomic Units (OTUs). The full-length 16S rRNA gene sequence of each species-level OTU was compared to the Ribosomal Database Project (RDP) reference database to assign taxonomic designations to the genus level and a BLAST search performed to identify any candidate novel species.
(§2) Strains plated onto blood agar (Hardy Diagnostics) with a 24-hour incubation at 37° C. in an anaerobic environment (Coy vinyl anaerobic chamber). After incubation, 3-5 well-isolated colonies were suspended into 5 mL of BHI broth (Criterion Media). The cultures were incubated in an anaerobic chamber for 24 hours to achieve a 0.5 McFarland Standard. Brucella agar with 5% hemin (5 ug/mL) (Sigma), vitamin K (10 ug/mL), and defibrinated sheep blood (Northeast Lab Services). The supplemented brucella agar was then utilized for two-fold serial dilution to create plates with IBZ concentration of 0.5 to 16 μg/mL plates. Plates were allowed to dry in a sterile location. After drying, the plates were covered with foil to prevent any photo-damage to the hemin and placed in the anaerobic chamber for 1 hour to reduce the media. The broth culture was then spotted onto the plates and covered with foil. Plates were allowed to dry completely before inverting them for incubation for 48 hours. Plates were analyzed and MIC recorded.

Enterococcus avium = assay: MIC determination, stool Firmicute isolates; format: cell-based
Text: as §1, §2

Enterococcus mundtii = assay: MIC determination, stool Firmicute isolates; format: cell-based; details: N=1
Text: as §1, §2

Enterococcus durans = assay: MIC determination, stool Firmicute isolates; format: cell-based
Enterococcus pseudoavium = assay: MIC determination, stool Firmicute isolates; format: cell-based; details: N=1
[2] = test system: Erysipelatoclostridium ramosum; assay: MIC determination, stool Firmicute isolates; format: cell-based; details: Thomasclavelia ramosa
[3] = healthy volunteers, 450 mg twice daily 10 days, day 3
[4] = healthy volunteers, 450 mg twice daily 10 days, day 5
[5] = healthy volunteers, 450 mg twice daily 10 days, day 8
[6] = healthy volunteers, 450 mg twice daily 10 days, day 10
[7] = healthy volunteers, 450 mg twice daily 10 days, day 12

O=c1[nH]c(NCc2ccc(Cl)c(Cl)c2)nc2ncn(CCN3CCOCC3)c12 [Ibezapolstat, 2-((3,4-dichlorobenzyl)amino)-7-(2-morpholinoethyl)-1,7-dihydro-6H-purin-6-one]
amount of C. coccoides (Clostridium cluster XIVa), qPCR (gut microbiome; healthy volunteers, 450 mg twice a day, over 12 days): increased | Proportion of isolated Firmicutes, Streptococcaceae (gut microbiome; [3]): 27% | Proportion of isolated Firmicutes, Veillonellaceae (gut microbiome; [3]): 3% | Proportion of isolated Firmicutes, Erysipelotrichaceae (gut microbiome; [3]): 4% | Proportion of isolated Firmicutes, Other (gut microbiome; [3]): 6% | Proportion of isolated Firmicutes, Lachnospiraceae (gut microbiome; [3]): 23% | Proportion of isolated Firmicutes, Ruminococcaceae (gut microbiome; [3]): 37% | Proportion of isolated Firmicutes, Streptococcaceae (gut microbiome; [4]): 43% | Proportion of isolated Firmicutes, Erysipelotrichaceae (gut microbiome; [4]): 7% | Proportion of isolated Firmicutes, Other (gut microbiome; [4]): 9% | Proportion of isolated Firmicutes, Lachnospiraceae (gut microbiome; [4]): 21% | Proportion of isolated Firmicutes, Ruminococcaceae (gut microbiome; [4]): 20% | Proportion of isolated Firmicutes, Lactobacilloae (gut microbiome; [5]): 12% | Proportion of isolated Firmicutes, Streptococcaceae (gut microbiome; [5]): 49% | Proportion of isolated Firmicutes, Erysipelotrichaceae (gut microbiome; [5]): 7% | Proportion of isolated Firmicutes, Other (gut microbiome; [5]): 9% | Proportion of isolated Firmicutes, Lachnospiraceae (gut microbiome; [5]): 16% | Proportion of isolated Firmicutes, Ruminococcaceae (gut microbiome; [5]): 7% | Proportion of isolated Firmicutes, Lactobacilloae (gut microbiome; [6]): 5% | Proportion of isolated Firmicutes, Streptococcaceae (gut microbiome; [6]): 41% | Proportion of isolated Firmicutes, Erysipelotrichaceae (gut microbiome; [6]): 18% | Proportion of isolated Firmicutes, Other (gut microbiome; [6]): 9% | Proportion of isolated Firmicutes, Lachnospiraceae (gut microbiome; [6]): 24% | Proportion of isolated Firmicutes, Ruminococcaceae (gut microbiome; [6]): 3% | Proportion of isolated Firmicutes, Lactobacilloae (gut microbiome; [7]): 6% | Proportion of isolated Firmicutes, Streptococcaceae (gut microbiome; [7]): 14% | Proportion of isolated Firmicutes, Erysipelotrichaceae (gut microbiome; [7]): 25% | Proportion of isolated Firmicutes, Other (gut microbiome; [7]): 5% | Proportion of isolated Firmicutes, Lachnospiraceae (gut microbiome; [7]): 47% | Proportion of isolated Firmicutes, Ruminococcaceae (gut microbiome; [7]): 4% | Actinobacteria abundance after starting treatment (gut microbiome; healthy volunteers, primarily Bifidobacteriales or Coriobacteriales, persisted for the entire dosing period): increased in abundance | microbiome profile of treated subjects (gut microbiome; phase 1 healthy volunteer study, treatment over 10 days, shotgun metagenomic sequencing): larger proportion of Actinobacteria and Firmicute Phylum | adverse event profile ([1]; 10 CDI patients, 450 mg orally twice daily 10 days): acceptable adverse event profile | clinical cure ([1]; 10 CDI patients, 450 mg orally twice daily 10 days, at day 12): 100% | sustained clinical cure ([1]; 10 CDI patients, 450 mg orally twice daily 10 days, at day 38): 100% | success rate ([1]; Phase 2a CDI clinical trial): 100% | eradication of colonic C. difficile ([1]; by day three of treatment): complete eradication | recurrences of infection ([1]; followed for recurrence for 28±2 days): no recurrences | MIC50 (Clostridium tertium): 12.5 µg/mL (≈ 29.5 µM) | MIC (Clostridium tertium; N=2, read-out: MIC Min): 3.12 µg/mL (≈ 7.38 µM) | MIC (Clostridium tertium; read-out: MIC Max): 12.5 µg/mL (≈ 29.5 µM) | MIC50 (Blautia sp.): 12.5 µg/mL (≈ 29.5 µM) | MIC50 (Enterococcus avium; N=2): 12.5 µg/mL (≈ 29.5 µM) | MIC (Enterococcus avium; N=2, read-out: MIC Max): 12.5 µg/mL (≈ 29.5 µM) | MIC (Enterococcus avium; N=2, read-out: MIC Min): 12.5 µg/mL (≈ 29.5 µM) | MIC50 (Enterococcus mundtii): 12.5 µg/mL (≈ 29.5 µM) | MIC50 (Enterococcus durans; N=1): 100 µg/mL (≈ 236 µM) | MIC (Enterococcus durans; N=1, read-out: MIC Max): 100 µg/mL (≈ 236 µM) | MIC (Enterococcus durans; N=1, read-out: MIC Min): 100 µg/mL (≈ 236 µM) | MIC50 (Enterococcus pseudoavium): 100 µg/mL (≈ 236 µM) | MIC50 ([2]; N=5): 6.25 µg/mL (≈ 14.8 µM) | MIC ([2]; N=5, read-out: MIC Max): 100 µg/mL (≈ 236 µM) | MIC ([2]; N=5, read-out: MIC Min): 3.12 µg/mL (≈ 7.38 µM)

Source: US20260144796A1, “Compounds and Methods for Improving Health” (Acurx Pharmaceuticals, Inc., priority 2022, published 2026)
